Reference: patent US20110015226A1, “Treatment of Energy Utilization Disease” (SUMMIT CORPORATION PLC, priority 2008, published 2011)
pIC50: −log10 of the molar value. Read-outs that look alike come from different tables or passages of the source.

Legend:
digestive glucosidases = conditions: Watson et al., 2001; cited from earlier work
rat intestinal maltase [1] = conditions: from Yasuda et al., 2002; cited from earlier work
rat intestinal lactase = target: T1, rat intestinal lactase (Rattus norvegicus, UniProt Q02401); experiment: Rat intestinal glycosidases: lactase; format: biochemical; conditions: rat intestinal brush border membranes
T1 construct: Enzyme activities were prepared from brush border membranes of rat small intestine; from tissue; host or cells: rat small intestine brush border membranes
T1 sequence (Q02401 868-1928): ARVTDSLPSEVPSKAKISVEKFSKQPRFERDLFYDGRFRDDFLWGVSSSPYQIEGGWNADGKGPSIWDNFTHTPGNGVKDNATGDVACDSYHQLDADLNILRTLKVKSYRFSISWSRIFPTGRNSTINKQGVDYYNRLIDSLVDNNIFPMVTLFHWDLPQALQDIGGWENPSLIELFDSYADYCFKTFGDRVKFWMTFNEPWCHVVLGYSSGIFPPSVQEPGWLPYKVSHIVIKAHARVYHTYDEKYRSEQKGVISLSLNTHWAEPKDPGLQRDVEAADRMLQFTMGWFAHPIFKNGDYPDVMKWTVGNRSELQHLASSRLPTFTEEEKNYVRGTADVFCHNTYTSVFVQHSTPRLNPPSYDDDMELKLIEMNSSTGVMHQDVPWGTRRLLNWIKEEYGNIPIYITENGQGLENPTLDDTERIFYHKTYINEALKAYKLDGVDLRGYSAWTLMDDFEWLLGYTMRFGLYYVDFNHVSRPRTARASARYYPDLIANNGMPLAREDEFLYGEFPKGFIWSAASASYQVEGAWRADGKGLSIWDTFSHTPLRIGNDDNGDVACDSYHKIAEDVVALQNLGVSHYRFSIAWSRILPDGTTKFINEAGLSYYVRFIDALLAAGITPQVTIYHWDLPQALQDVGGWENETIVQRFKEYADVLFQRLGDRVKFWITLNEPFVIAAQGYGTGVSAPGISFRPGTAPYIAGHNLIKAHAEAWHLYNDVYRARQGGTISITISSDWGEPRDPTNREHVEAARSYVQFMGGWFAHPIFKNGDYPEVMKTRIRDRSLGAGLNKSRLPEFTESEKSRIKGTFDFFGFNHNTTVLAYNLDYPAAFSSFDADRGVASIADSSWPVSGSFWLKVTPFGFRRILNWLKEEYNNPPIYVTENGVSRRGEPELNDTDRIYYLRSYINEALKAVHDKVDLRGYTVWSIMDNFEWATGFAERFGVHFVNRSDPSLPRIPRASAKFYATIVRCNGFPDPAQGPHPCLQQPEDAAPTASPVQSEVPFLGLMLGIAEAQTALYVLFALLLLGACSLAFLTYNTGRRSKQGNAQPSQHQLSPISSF
Method: (§1) Enzyme activities were prepared from brush border membranes of rat small intestine using disaccharides as substrates as described by Yasuda et al., 2002.

iduronidase = iduronidase (Homo sapiens, UniProt P35475); conditions: Booth et al. (2007) and references therein; cited from earlier work
Sequence of iduronidase (P35475 28-653): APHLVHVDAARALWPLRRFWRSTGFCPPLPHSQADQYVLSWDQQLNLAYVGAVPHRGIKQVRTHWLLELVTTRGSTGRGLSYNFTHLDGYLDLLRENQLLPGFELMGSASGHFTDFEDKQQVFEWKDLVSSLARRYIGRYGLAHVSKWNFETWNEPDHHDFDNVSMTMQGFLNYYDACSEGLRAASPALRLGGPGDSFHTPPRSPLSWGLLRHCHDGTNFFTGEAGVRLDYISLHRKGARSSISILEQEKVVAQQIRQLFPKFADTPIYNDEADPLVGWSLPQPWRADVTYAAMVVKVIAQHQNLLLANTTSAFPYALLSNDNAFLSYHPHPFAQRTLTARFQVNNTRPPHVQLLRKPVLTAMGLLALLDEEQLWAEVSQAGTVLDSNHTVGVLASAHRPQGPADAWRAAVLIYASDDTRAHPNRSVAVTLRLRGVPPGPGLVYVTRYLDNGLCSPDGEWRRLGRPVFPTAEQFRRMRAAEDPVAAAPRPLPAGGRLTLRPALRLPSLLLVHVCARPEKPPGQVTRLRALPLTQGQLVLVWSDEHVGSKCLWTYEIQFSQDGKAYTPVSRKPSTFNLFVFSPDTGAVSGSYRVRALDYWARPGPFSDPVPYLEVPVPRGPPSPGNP

rat intestinal maltase [2] = experiment: Rat intestinal glycosidases: maltase; format: biochemical; conditions: rat intestinal brush border membranes
Method: as §1

ob/ob mice = experiment: Oral glucose tolerance test after 7 days dosing in ob/ob mice; format: in vivo
Method: The study started with 42 male ob/ob mice, 10 weeks of age. The mice were fed a normal chow diet during the whole study. After 1 week of acclimatization, mice were matched on basis of body weight, plasma glucose and insulin (after 4 h-fasting) and divided in 3 groups of 10 animals (t=0 days). For the next 6 days, mice received vehicle (control group 1) or 5 mg/kg/day (group 2) or 50 mg/kg/day (group 3) of the compound of formula (G2) (test compound) around 12.00 h by gavage (5 ml/kg mouse). On the 7th day, mice were fasted at 8.00 h and received the last gavage (vehicle for group 1 or 5 mg/kg/day, test compound for group 2 or 50 mg/kg/day test compound for group 3) at 12.00 h. At 13.00 h the mice subsequently received a glucose bolus (2 g/kg mouse, 5 ml/kg mouse) by gavage as start of the oral glucose tolerance test (OGTT). Measurement of blood glucose and plasma collection was at t=0 (just before gavage of glucose) and at t=5, 15, 30, 45, 60 and 120 min after glucose bolus. After the OGTT, mice were sacrificed with CO2 and additional blood was collected in heparin-coated tubes via heart puncture (>100 μl plasma was obtained) and heparin-plasma samples were analysed.
On day 0 mice were randomized on body weight and 4 h fasted plasma glucose and insulin levels (table 3.1.a). Twelve out of 42 mice were excluded, to create more homogenous groups with respect to body weight, plasma glucose and insulin.

Solubility in water = format: physicochemical
α-glucosidases = experiment: Inhibition of α-glucosidases (summary statement); format: biochemical; conditions: only just reaching 50% inhibition at nearly mM concentration
Excerpt: The results tabulated below were obtained using commercially available glycosidases and p-nitrophenyl-substrates using standard methods described for example by Watson et al (1997) Phytochemistry 46 255-259. All enzymes and substrates were bought from Sigma. Enzyme and substrate solutions were made using sodium phosphate buffers at the pH optima values. The enzymes used were α-D-glucosidase Saccharomyces cerevisiae, Bacillus stearothermophilus, Oryzae sativa), β-D-glucosidase (Almond), α-D-mannosidase (Jack bean), α-D-galactosidase (Green coffee beans), β-D-galactosidase (Bovine liver), α-L-fucosidase (Bovine kidney), N-acetyl-β-D-glucosaminidase (Bovine kidney, Jack bean, Aspergillus oryzae), Naringinase (Penicillium decumbens) and amyloglucosidase (Aspergillus niger). All enzymes were used with the appropriate p-nitrophenyl substrates (5 mM). Amyloglucosidase activity was measured using amylopectin (0.1%) (Merck) mixed with sodium phosphate buffer, pH 4.5 in a glass bottle, and healed in a boiling water bath for 20 minutes to dissolve with released glucose measured using ‘Trinder’ glucose detection solution (Sigma).

rat intestinal sucrase = target: T2, rat intestinal sucrase (Rattus norvegicus, UniProt P23739); experiment: Rat intestinal glycosidases: sucrase; format: biochemical; conditions: rat intestinal brush border membranes
T2 construct: Enzyme activities were prepared from brush border membranes of rat small intestine; from tissue; host or cells: rat small intestine brush border membranes
T2 sequence (P23739 whole entry): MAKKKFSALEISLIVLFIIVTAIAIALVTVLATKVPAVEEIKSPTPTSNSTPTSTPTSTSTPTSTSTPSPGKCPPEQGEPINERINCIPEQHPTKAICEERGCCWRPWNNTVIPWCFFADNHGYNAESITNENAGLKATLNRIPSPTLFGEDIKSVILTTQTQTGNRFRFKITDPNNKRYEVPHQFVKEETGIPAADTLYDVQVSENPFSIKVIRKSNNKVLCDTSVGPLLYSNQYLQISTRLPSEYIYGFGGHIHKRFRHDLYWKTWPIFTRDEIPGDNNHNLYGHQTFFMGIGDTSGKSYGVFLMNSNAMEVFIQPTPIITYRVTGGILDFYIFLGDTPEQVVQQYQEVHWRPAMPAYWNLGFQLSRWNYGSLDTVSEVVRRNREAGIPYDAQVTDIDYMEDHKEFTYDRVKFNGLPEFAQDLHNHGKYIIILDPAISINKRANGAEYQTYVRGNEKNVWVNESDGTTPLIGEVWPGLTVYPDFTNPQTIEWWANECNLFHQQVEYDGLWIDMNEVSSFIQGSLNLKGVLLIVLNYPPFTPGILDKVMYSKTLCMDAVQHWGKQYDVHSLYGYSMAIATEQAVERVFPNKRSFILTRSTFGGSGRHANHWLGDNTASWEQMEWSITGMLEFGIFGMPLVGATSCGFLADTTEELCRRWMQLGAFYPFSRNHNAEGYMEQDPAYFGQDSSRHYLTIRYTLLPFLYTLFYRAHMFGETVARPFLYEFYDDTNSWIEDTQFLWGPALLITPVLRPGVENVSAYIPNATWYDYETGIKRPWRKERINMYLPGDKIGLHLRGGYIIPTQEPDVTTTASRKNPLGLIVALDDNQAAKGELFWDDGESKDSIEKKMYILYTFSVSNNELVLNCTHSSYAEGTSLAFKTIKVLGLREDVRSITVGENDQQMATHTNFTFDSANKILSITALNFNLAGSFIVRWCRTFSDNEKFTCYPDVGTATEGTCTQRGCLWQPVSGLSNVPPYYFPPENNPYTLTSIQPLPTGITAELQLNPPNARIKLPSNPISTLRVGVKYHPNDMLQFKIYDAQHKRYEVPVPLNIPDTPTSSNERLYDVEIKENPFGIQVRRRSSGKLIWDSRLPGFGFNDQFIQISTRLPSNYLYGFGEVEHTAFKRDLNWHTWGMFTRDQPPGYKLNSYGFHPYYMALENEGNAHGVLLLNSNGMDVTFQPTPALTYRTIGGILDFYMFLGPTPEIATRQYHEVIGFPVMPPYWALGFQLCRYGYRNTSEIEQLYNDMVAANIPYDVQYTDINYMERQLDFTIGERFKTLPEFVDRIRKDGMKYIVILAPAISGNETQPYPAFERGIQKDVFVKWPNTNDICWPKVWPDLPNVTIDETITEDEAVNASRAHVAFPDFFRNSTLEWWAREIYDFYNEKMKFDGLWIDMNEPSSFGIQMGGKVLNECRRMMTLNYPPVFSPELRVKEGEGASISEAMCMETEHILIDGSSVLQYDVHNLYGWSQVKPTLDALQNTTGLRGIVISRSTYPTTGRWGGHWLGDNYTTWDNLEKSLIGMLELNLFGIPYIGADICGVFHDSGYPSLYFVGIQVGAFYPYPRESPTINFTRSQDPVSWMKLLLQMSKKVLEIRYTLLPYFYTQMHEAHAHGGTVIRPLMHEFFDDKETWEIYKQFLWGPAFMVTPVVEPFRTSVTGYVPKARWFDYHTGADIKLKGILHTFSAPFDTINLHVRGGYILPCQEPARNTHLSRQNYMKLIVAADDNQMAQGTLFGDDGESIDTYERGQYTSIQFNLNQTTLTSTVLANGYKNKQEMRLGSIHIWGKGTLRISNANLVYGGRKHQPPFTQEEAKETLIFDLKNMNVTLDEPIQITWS
Method: as §1

zebrafish larvae = experiment: Acute Toxicity assay in zebrafish larvae; format: in vivo; conditions: 1 mM, 5 mM, 25 mM, 50 mM, 100 mM, 200 mM, 500 mM aqueous dose, 72-96 hpf
Method: The compound of formula (G2) was screened for toxicity liabilities using a validated Acute Toxicity assay. Fertilized eggs were obtained from breeding pairs of adult Tuebingen (Tu) zebrafish and arrayed at the 2-4 cell stage of development into 24-well culture plates containing fresh 0.3× Danieau's solution. Plates were incubated at 28.5° C. in a humidity controlled environment prior to assessment. Stock concentrations of Compound were produced by serial dilution in 100% DMSO (final concentration exposed to larvae, 0.5%). Screening was performed at seven doses (1, 5, 25, 50, 100, 200 and 500 mM) alongside VASTox internal controls and vehicle. Dosing of Compound took place at 72 h post fertilisation (hpf; at which point embryogenesis is complete) with visual assessment of lethality and gross morphology at 96 hpf (24 h incubation). […] were exposed to each dose of Compound giving a total of […] assessed (excluding controls). At 96 hpf, larvae were observed and screened using a dissecting stereomicroscope for the presence or absence of: (1) heartbeat (2) circulation; (3) necrosis; and (4) motility (touch response). If all four criteria were satisfied, a larva would be classified as dead. The compound was screened blind.

ddy mice = experiment: Blood glucose levels after maltose loading in ddy mice; format: in vivo
Method: 7 weeks old ddy mice (weight 30-31 g) were divided into 4 groups (from group 1 to 4). Each group had 5 mouse. All test mouse were fasted for 16 hours for this experiment.
The aim of this experiment was to show if G2 (here coded as BR1) could suppress a hyperglycemia after a meal. Thus, maltose was chosen as the loading sugar as used for Bayer's glucosidase inhibitor Glucobay. Either maltose (2.5 g/kg) or Surose (2.5 g/kg) or starch (1.0 g/kg) can be used but maltose is most popular.
Group 1: Control. Maltose-loading only (without G2 condition). Group 2: oral administration of G2 with maltose (same time). Group 3: intraperitoneal injection of G2 and oral administration of maltose (same time). Group 4: oral administration of G2 30 minutes before maltose-loading. (Glucobay is taken 30 minutes before meals).

Storage stability = format: physicochemical; conditions: all normal laboratory storage conditions
[3] = 5 mg/kg/day or 50 mg/kg/day by gavage, compared to control (vehicle) group

In the case of `OC[C@H]1NC[C@H](O)[C@@H](O)[C@@H]1O` [DNJ, 1-deoxynojirimycin, reference compound], the “Ki values, digestive glucosidases” value (digestive glucosidases) is given as “low or sub-μM range” and the pIC50 (rat intestinal maltase [1]) is given as 6.44.

In the case of `O=C(O)[C@H]1NC[C@H](O)[C@@H](O)[C@@H]1O` [Compound G2, 2S,3R,4R,5S-trihydroxypiperidine-2-carboxylic acid], the pIC50 (rat intestinal lactase) is listed as under 3.00, the inhibition of iduronidase (iduronidase) is listed as “weak inhibitor” and the pIC50 (rat intestinal maltase [2]) is listed as under 3.00. The “plasma insulin concentrations 120 min after glucose bolus” value (ob/ob mice; 5 mg/kg and 50 mg/kg groups vs control) was “significantly increased”, the body weight (ob/ob mice; [3]) was “not significantly changed” and the food intake (ob/ob mice; [3]) was “not significantly changed”. The “plasma insulin at 15, 30, 45 and 60 min” value (ob/ob mice; after glucose bolus 2 g/kg, 5 and 50 mg/kg/day groups vs control) was “No significant changes”, the “plasma insulin levels at 0 min” value (ob/ob mice; just before oral glucose load, 5 and 50 mg/kg/day groups vs control, reduction not significant) was “reduced somewhat” and the solubility in water (Solubility in water) was “freely soluble”. The “inhibition of α-glucosidases” value (α-glucosidases) was “very weak inhibitor”, the pIC50 (rat intestinal sucrase) was under 3.00 and the “acute toxicity to zebrafish larvae” value (zebrafish larvae) was “did not cause acute toxicity”. The “absorption into the blood” value (ddy mice; inferred from p.o. and i.p. curves being almost same) was “absorbed into the blood very quickly”, the “blood glucose level (hyperglycemia) after maltose loading” value (ddy mice; p.o. with maltose, i.p. with maltose, or p.o. 30 minutes before maltose (2.5 g/kg)) was “suppress hyperglycemia” and the stability (Storage stability) was “stable”.
